Test results reported in patent US20110059226A1, “METHOD FOR LOADING A MOLECULE INTO A POROUS SUBSTRATE” (priority 2009, published 2011).

Assays:
Format in all cases: physicochemical
[1] = Release of Ibuprofen from mesoporous silica into water; conditions: within one minute of the mesoporous silica being added to water
Source text: Fifty percent of the Ibuprofen is released into water within one minute of the mesoporous silica being added to water. This is desirable as a quicker release for an analgesic drug will result in faster relief for the individual taking the analgesic drug.

[2] = Loading of Ibuprofen into mesoporous silica (MCM-41) from liquid carbon dioxide, adsorbed amount measured by TGA; conditions: for Maximum loaded amount of Ibuprofen in mesoporous silica: pure CO2 (I), 20° C., 55±2 bar
Source text: The mesoporous particles were placed in a bag (fabric of polypropene, PP 3333, permeability 105 DIN, Derma AB, Sweden), which was permeable for the solvent and dissolved Ibuprofen molecules but kept the mesoporous particles in one place in the reactor (see below). The amount of mesoporous particles was 0.1 g in all experiments, while the amount of Ibuprofen was varied for different loading experiments. The particles in the bag and Ibuprofen crystals (thoroughly ground in a mortar before use) were placed in a glass beaker (400 ml), which was placed in an in-house built stainless steel reactor (1.7 L) with two sapphire glass windows. The reactor was first pressurized with carbon dioxide and thereafter 200 ml CO2 (I) or CO2 (I)+5 mol-% cosolvent was introduced into the glass beaker at 20° C. and 55±2 bar. […] After the loading period (15 minutes to 18 hours), the reactor was depressurized and the bag containing the mesoporous particles with Ibuprofen was retrieved. The samples were characterized with TGA using a TGA 7 instrument (Perkin Elmer Inc., USA). The temperature program used consisted of an initial part with a heating rate of 20° C./min from 20° C. to 95° C., followed by an isothermal pause for 60 minutes at 95° C., and finally heating from 95° C. up to 800° C. at a heating rate of 2° C./min. All TGA measurements were performed under 20 ml/min flow of N2 gas. […] The loading time and concentration of Ibuprofen in the CO2 (I) was varied in the experiments and each experiment is represented by one point in the graph in FIG. 1.

[3] = Solubility limit of Ibuprofen in CO2 (I) and CO2 (I) with 5 mol % cosolvent, by visual inspection; conditions: room temperature, 55±2 bar, 9 hours
Description: The solubility of Ibuprofen in CO2 (I) and CO2 (I) with 5 mol % of cosolvent was determined by visual inspection of sample mixtures of the solvent(s) and Ibuprofen at room temperature and 55±2 bar, and the solubility limit was considered to be reached when particles of Ibuprofen were visible.

CC(C)Cc1ccc(C(C)C(=O)O)cc1 (stereo not shown) [Ibuprofen]
Ibuprofen released into water from mesoporous silica [1]: Fifty
Maximum adsorbed amount of Ibuprofen in the mesoporous particles ([2]; 0.34 wt-% Ibuprofen in CO2 (I) + acetone (5 mol-%)): approximately 50 mg Ibuprofen/g SiO2
Maximum adsorbed amount of Ibuprofen in the mesoporous particles ([2]; 0.34 wt-% Ibuprofen in CO2 (I) + cyclohexane (5 mol-%)): approximately 200 mg Ibuprofen/g SiO2
Maximum adsorbed amount of Ibuprofen in the mesoporous particles ([2]; 0.34 wt-% Ibuprofen in CO2 (I) + methanol (5 mol-%)): approximately 50 mg Ibuprofen/g SiO2
Maximum loaded amount of Ibuprofen in mesoporous silica ([2]; Ibuprofen concentration below the solubility limit (0.04 wt-%)): much lower loading
Maximum loaded amount of Ibuprofen in mesoporous silica ([2]; solution saturated with Ibuprofen (0.34 or 0.90 wt-% nominal), 7 to 12 hours): ~300 mg Ibuprofen/g SiO2
Solubility limit ([3]; Solvent CO2 (I) + acetone (5 mol %)): 1.5-2.0 wt-%
Solubility limit ([3]; Solvent CO2 (I) + cyclohexane (5 mol %)): 1.0-1.5 wt-%
Solubility limit ([3]; Solvent CO2 (I) + methanol (5 mol %)): >2.0 wt-%
Solubility limit ([3]; Solvent CO2 (I)): 0.20-0.25 wt-%
